Reference: patent publication US20250051300A1, “GRAM-NEGATIVE SPECIFIC ANTIBIOTICS SPARING EFFECT ON GUT MICROBIOME” (THE BOARD OF TRUSTEES OF THE UNIVERSITY OF ILLINOIS, priority 2021, published 2025)
Converted amounts (≈) assume the structure as drawn. Like-named read-outs stand apart in the source and are kept apart here.

Legend:
[1] = tested on: Escherichia coli; experiment: MIC, micro-dilution broth method (CLSI); format: cell-based
[2] = tested on: E. coli AR0349; experiment: Bacterial sepsis survival model; format: in vivo, CD-1 mice; details: 100 mg/kg IP twice daily for 3 days
[3] = tested on: Escherichia coli; experiment: Resistance frequency, large inoculum method; format: cell-based; details: E. coli ΔtolC JW5503, 32×MIC
Method: Selection of resistant mutants. Resistant mutants were selected using the large inoculum method. Briefly, E. coli BW25113, K. pneumoniae ATCC 27736, or E. cloacae ATCC 29893 (˜1.0×10^7 c.f.u.) was plated on 100-mm plates of Luria Bertani agar containing 8, 16, 32, or 64 μg/mL, lolamycin. For E. coli ΔtolC (JW5503), ˜1.0×10^7 c.f.u. was plated on 100-mm plates of Luria Bertani agar containing 0.063, 0.13, 0.25, 0.5 μg/mL lolamycin. Colonies were visible after incubating at 37° C. for 48 h. Resistant colonies were confirmed by growing colonies in selective media with the same concentration of lolamycin.

[4] = tested on: Enterobacter cloacae; experiment: MIC, micro-dilution broth method (CLSI); format: cell-based
[5] = tested on: clinical isolates of E. coli, K. pneumoniae, and E. cloacae; experiment: Susceptibility of panel of multidrug-resistant clinical isolates
[6] = Mouse maximum tolerated dose / tolerability; format: in vivo; details: IP
Method: Mouse maximum tolerated dose (MTD) of compound 2 and lolamycin. […] In these studies, 10- to 12-week-old female C57BL/6 mice purchased from Charles River Laboratories were used. The maximum tolerated dose (MTD) of a single compound via IP injection was determined first. Compound 2 and lolamycin were formulated in 50% DMSO, 50% PEG400. Compound 2 and lolamycin were given by intraperitoneal (IP) injection. All the mice were monitored for signs of toxicity for 2 weeks. For multiple doses, the compound was given by daily IP injection for 5 consecutive days and the mice were monitored for signs of toxicity for 1 month. The MTD was the highest dosage with acceptable toxicity (for example, <20% weight loss).
Next, the MTD of lolamycin via oral gavage was determined. Lolamycin was formulated in 20% DMSO, 30% Water, and 50% PEG400. Lolamycin was given via oral gavage. All the mice were monitored for signs of toxicity for 2 weeks. For multiple doses, compound was given twice daily orally for 3 consecutive days and the mice were monitored for signs of toxicity. The MTD was the highest dosage with acceptable toxicity (for example, <20% weight loss). […] The MTD of lolamycin was used to inform the dosing schedule used in subsequent efficacy studies.

Fc1ccc(COc2cccc(-c3n[nH]cc3-c3ccncc3)c2)cc1 [Compound 2, 4-(3-(3-((4-fluorobenzyl)oxy)phenyl)-1H-pyrazol-4-yl)pyridine]
MIC ([1]; E. coli AR-0349 (colistin-resistant clinical isolate)): >32 µg/mL
MIC ([1]; E. coli AR-0549): >32 µg/mL
MIC ([1]; Escherichia coli, ATCC25922, E. coli ATCC 25922, read-out: MIC): 8 µg/mL (≈ 23.2 µM)
MIC ([1]; Escherichia coli, ATCCBAA2340, E. coli ATCC BAA-2340, read-out: MIC): > 32 µg/mL
MIC ([1]; Escherichia coli, ATCCBAA2469, E. coli ATCC BAA-2469, read-out: MIC): > 32 µg/mL
MIC ([1]; Escherichia coli, ATCCBAA2471, E. coli ATCC BAA-2471, read-out: MIC): > 32 µg/mL
MIC ([1]; Escherichia coli, E. coli AR0048, read-out: MIC): > 32 µg/mL
MIC ([1]; Escherichia coli, E. coli AR0055, read-out: MIC): > 32 µg/mL
MIC ([1]; Escherichia coli, E. coli AR0058, read-out: MIC): > 32 µg/mL
MIC ([1]; Escherichia coli, E. coli AR0061, read-out: MIC): > 32 µg/mL
MIC ([1]; Escherichia coli, E. coli AR0067, read-out: MIC): > 32 µg/mL
MIC ([1]; Escherichia coli, E. coli AR0069, read-out: MIC): > 32 µg/mL
MIC ([1]; Escherichia coli, E. coli AR0077, read-out: MIC): 8 µg/mL (≈ 23.2 µM)
MIC ([1]; Escherichia coli, E. coli AR0081, read-out: MIC): 16 µg/mL (≈ 46.3 µM)
MIC ([1]; Escherichia coli, E. coli AR0084, read-out: MIC): > 32 µg/mL
MIC ([1]; Escherichia coli, E. coli AR0085, read-out: MIC): > 32 µg/mL
MIC ([1]; Escherichia coli, E. coli AR0086, read-out: MIC): 8 µg/mL (≈ 23.2 µM)
MIC ([1]; Escherichia coli, E. coli AR0089, read-out: MIC): > 32 µg/mL
MIC ([1]; Escherichia coli, E. coli AR0104, read-out: MIC): 16 µg/mL (≈ 46.3 µM)
MIC ([1]; Escherichia coli, E. coli AR0114, read-out: MIC): > 32 µg/mL
MIC ([1]; Escherichia coli, E. coli AR0118, read-out: MIC): 16 µg/mL (≈ 46.3 µM)
MIC ([1]; Escherichia coli, E. coli AR0119, read-out: MIC): > 32 µg/mL
MIC ([1]; Escherichia coli, E. coli AR0128, read-out: MIC): 16 µg/mL (≈ 46.3 µM)
MIC ([1]; Escherichia coli, E. coli AR0137, read-out: MIC): 16 µg/mL (≈ 46.3 µM)
MIC ([1]; Escherichia coli, E. coli AR0149, read-out: MIC): > 32 µg/mL
MIC ([1]; Escherichia coli, E. coli AR0150, read-out: MIC): 16 µg/mL (≈ 46.3 µM)
MIC ([1]; Escherichia coli, E. coli AR0151, read-out: MIC): > 32 µg/mL
MIC ([1]; Escherichia coli, E. coli AR0162, read-out: MIC): > 32 µg/mL
MIC ([1]; Escherichia coli, E. coli AR0346, read-out: MIC): > 32 µg/mL
MIC ([1]; Escherichia coli, E. coli AR0348, read-out: MIC): > 32 µg/mL
MIC ([1]; Escherichia coli, E. coli AR0350, read-out: MIC): > 32 µg/mL
MIC ([1]; Escherichia coli, E. coli AR0493, read-out: MIC): > 32 µg/mL
MIC ([1]; Escherichia coli, E. coli AR0494, read-out: MIC): > 32 µg/mL
MIC ([1]; Escherichia coli, E. coli AR0495, read-out: MIC): > 32 µg/mL
MIC ([1]; Escherichia coli, E. coli AR0541, read-out: MIC): > 32 µg/mL
MIC ([1]; Escherichia coli, E. coli AR0543, read-out: MIC): > 32 µg/mL
MIC ([1]; Escherichia coli, E. coli AR0546, read-out: MIC): > 32 µg/mL
MIC ([1]; Escherichia coli, E. coli AR0551, read-out: MIC): > 32 µg/mL
MIC ([1]; Escherichia coli, E. coli AR0559, read-out: MIC): > 32 µg/mL
MIC ([1]; Escherichia coli, E. coli AR-0349 (colistin-resistant clinical isolate), read-out: MIC): > 32 µg/mL
MIC ([1]; Escherichia coli, E. coli AR-0549, read-out: MIC): > 32 µg/mL
MIC ([1]; Escherichia coli, E. coli ELZ 4004, read-out: MIC): > 32 µg/mL
MIC ([1]; Escherichia coli, E. coli ELZ 4017, read-out: MIC): 8 µg/mL (≈ 23.2 µM)
MIC ([1]; Escherichia coli, E. coli ELZ 4042, read-out: MIC): > 32 µg/mL
MIC ([1]; Escherichia coli, E. coli ELZ 4072, read-out: MIC): 8 µg/mL (≈ 23.2 µM)
MIC ([1]; Escherichia coli, E. coli ELZ 4081, read-out: MIC): 4 µg/mL (≈ 11.6 µM)
MIC ([1]; Escherichia coli, E. coli ELZ 4139, read-out: MIC): > 32 µg/mL
MIC ([1]; Escherichia coli, E. coli ELZ 4239, read-out: MIC): > 32 µg/mL
MIC ([1]; Escherichia coli, E. coli ELZ 4277, read-out: MIC): > 32 µg/mL
MIC ([1]; Escherichia coli, E. coli ELZ 4346, read-out: MIC): > 32 µg/mL
MIC ([1]; Escherichia coli, E. coli ΔrfaC JW3596 (permeability mutant)): 1 µg/mL (≈ 2.9 µM)
MIC ([1]; Escherichia coli, E. coli ΔtolC JW5503 (efflux-deficient)): 0.06 µg/mL (≈ 0.174 µM)
mice with septic infection rescued (survival) [2]: fared poorly
resistance frequency [3]: 9.2×10^−7
MIC ([4]; E. cloacae AR-0163): >32 µg/mL
MIC ([4]; E. cloacae ATCC BAA-2468): >32 µg/mL
MIC ([4]; Enterobacter cloacae, ATCC29893, E. cloacae ATCC 29893, read-out: MIC): > 32 µg/mL
MIC ([4]; Enterobacter cloacae, ATCCBAA2341, E. cloacae ATCC BAA-2341, read-out: MIC): > 32 µg/mL
MIC ([4]; Enterobacter cloacae, ATCCBAA2468, E. cloacae ATCC BAA-2468, read-out: MIC): > 32 µg/mL
MIC ([4]; Enterobacter cloacae, E. cloacae AR0032, read-out: MIC): > 32 µg/mL
MIC ([4]; Enterobacter cloacae, E. cloacae AR0038, read-out: MIC): > 32 µg/mL
MIC ([4]; Enterobacter cloacae, E. cloacae AR0050, read-out: MIC): 8 µg/mL (≈ 23.2 µM)
MIC ([4]; Enterobacter cloacae, E. cloacae AR0053, read-out: MIC): > 32 µg/mL
MIC ([4]; Enterobacter cloacae, E. cloacae AR0060, read-out: MIC): 16 µg/mL (≈ 46.3 µM)
MIC ([4]; Enterobacter cloacae, E. cloacae AR0065, read-out: MIC): 16 µg/mL (≈ 46.3 µM)
MIC ([4]; Enterobacter cloacae, E. cloacae AR0072, read-out: MIC): > 32 µg/mL
MIC ([4]; Enterobacter cloacae, E. cloacae AR0073, read-out: MIC): > 32 µg/mL
MIC ([4]; Enterobacter cloacae, E. cloacae AR0093, read-out: MIC): > 32 µg/mL
MIC ([4]; Enterobacter cloacae, E. cloacae AR0132, read-out: MIC): > 32 µg/mL
MIC ([4]; Enterobacter cloacae, E. cloacae AR0136, read-out: MIC): > 32 µg/mL
MIC ([4]; Enterobacter cloacae, E. cloacae AR0154, read-out: MIC): 8 µg/mL (≈ 23.2 µM)
MIC ([4]; Enterobacter cloacae, E. cloacae AR0164, read-out: MIC): > 32 µg/mL
MIC ([4]; Enterobacter cloacae, E. cloacae AR0544, read-out: MIC): > 32 µg/mL
MIC ([4]; Enterobacter cloacae, E. cloacae AR0545, read-out: MIC): > 32 µg/mL
MIC ([4]; Enterobacter cloacae, E. cloacae AR-0163, read-out: MIC): > 32 µg/mL
activity against MDR clinical isolates [5]: only minimal activity
tolerability ([6]; C57BL/6 mice, daily dosing of 200 mg/kg for 5 consecutive days): well tolerated
tolerability ([6]; C57BL/6 mice, single dose of 200 mg/kg): well tolerated
tolerability ([6]; mice, 100 mg/kg twice a day for three days): well-tolerated
